Experimental data published in ChEMBL document CHEMBL1150977, “A quantitative analysis of kinase inhibitor selectivity” (Nat Biotechnol, 2008).

Experiments:
[1] = target: Serine/threonine-protein kinase SIK1 (Homo sapiens, UniProt P57059)
[2] = target: Leukocyte tyrosine kinase receptor (Homo sapiens, UniProt P29376)
[3] = target: AP2-associated protein kinase 1 (Homo sapiens, UniProt Q2M2I8)
[4] = target: T1, Myosin light chain kinase family member 4 (Homo sapiens, UniProt Q86YV6)
T1 sequence (Q86YV6 whole entry): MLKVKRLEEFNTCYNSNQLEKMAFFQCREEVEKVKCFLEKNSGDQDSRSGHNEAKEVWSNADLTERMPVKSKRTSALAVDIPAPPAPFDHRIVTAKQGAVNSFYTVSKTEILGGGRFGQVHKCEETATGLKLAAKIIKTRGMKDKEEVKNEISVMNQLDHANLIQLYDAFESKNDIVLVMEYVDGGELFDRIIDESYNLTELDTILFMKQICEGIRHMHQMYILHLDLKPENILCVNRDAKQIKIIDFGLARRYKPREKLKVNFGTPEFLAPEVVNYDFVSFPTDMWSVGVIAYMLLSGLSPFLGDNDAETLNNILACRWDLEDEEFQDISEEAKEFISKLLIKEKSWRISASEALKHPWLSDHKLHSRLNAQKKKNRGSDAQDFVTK

[5] = target: Tyrosine-protein kinase ABL1 (Homo sapiens, UniProt P00519, T315I)
[6] = target: T2, Muscle, skeletal receptor tyrosine-protein kinase (Homo sapiens, UniProt O15146)
T2 sequence (O15146 whole entry): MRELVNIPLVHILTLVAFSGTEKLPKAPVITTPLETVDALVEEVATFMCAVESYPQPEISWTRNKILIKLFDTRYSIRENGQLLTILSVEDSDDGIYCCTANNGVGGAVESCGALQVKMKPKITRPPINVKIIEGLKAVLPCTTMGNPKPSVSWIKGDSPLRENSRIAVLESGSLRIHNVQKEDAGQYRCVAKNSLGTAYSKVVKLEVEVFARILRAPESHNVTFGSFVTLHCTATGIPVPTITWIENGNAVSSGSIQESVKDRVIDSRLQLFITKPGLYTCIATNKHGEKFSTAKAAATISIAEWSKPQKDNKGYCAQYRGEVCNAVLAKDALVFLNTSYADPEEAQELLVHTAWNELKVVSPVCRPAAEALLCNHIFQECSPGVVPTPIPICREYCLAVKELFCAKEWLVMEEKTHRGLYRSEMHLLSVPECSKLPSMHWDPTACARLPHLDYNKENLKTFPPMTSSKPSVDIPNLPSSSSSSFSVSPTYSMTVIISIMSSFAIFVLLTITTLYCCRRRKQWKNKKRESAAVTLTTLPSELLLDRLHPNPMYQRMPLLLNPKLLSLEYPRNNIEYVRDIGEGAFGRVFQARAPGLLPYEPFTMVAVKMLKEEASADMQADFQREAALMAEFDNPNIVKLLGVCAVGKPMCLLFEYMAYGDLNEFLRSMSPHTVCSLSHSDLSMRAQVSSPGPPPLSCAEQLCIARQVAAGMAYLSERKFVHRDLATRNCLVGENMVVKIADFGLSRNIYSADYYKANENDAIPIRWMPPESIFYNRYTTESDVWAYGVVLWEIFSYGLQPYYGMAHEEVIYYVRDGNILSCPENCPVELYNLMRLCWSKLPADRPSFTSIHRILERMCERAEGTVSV

[7] = target: T3, Cyclin-G-associated kinase (Homo sapiens, UniProt O14976)
T3 sequence (O14976 whole entry): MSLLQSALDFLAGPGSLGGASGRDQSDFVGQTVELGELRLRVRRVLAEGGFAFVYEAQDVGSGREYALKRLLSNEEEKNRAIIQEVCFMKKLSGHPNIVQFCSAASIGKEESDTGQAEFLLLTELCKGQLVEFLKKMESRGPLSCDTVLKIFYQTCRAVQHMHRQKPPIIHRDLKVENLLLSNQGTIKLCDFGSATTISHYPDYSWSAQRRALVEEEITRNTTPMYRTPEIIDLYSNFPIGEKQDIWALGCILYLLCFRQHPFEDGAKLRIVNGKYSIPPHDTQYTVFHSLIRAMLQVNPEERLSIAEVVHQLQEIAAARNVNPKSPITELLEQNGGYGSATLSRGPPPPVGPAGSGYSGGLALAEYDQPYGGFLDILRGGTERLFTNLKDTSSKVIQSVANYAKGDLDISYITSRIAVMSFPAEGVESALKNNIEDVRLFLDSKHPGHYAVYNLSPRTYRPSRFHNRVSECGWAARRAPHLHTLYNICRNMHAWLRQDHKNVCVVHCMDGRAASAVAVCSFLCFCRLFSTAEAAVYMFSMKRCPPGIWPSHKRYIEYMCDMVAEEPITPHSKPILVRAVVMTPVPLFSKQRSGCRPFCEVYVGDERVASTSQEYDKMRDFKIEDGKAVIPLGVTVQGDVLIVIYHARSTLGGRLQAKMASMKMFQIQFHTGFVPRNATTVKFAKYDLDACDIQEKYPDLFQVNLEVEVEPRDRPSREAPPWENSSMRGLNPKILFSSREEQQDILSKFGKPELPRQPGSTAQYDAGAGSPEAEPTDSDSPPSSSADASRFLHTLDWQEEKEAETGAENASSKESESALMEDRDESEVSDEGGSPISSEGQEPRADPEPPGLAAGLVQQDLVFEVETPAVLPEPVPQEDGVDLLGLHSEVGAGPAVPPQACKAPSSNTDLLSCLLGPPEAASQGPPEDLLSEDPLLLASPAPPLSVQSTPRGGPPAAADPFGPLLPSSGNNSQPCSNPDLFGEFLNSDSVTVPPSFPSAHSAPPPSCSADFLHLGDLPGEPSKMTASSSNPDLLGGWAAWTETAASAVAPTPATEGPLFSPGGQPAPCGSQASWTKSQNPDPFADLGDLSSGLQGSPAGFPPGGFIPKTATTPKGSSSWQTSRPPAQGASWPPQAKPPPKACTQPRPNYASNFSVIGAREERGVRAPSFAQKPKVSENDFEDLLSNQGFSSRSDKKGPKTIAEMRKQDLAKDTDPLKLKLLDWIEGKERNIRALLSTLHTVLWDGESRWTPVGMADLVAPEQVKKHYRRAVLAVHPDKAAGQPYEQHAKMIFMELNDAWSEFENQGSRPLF

[8] = target: Serine/threonine-protein kinase PLK3 (Homo sapiens, UniProt Q9H4B4)
[9] = target: Ribosomal protein S6 kinase alpha-4 (Homo sapiens, UniProt O75676)
Angiopoietin-1 receptor = Angiopoietin-1 receptor (Homo sapiens, UniProt Q02763)

SMILES | Kd [1] [µM] | Kd [2] [µM] | Kd [3] [µM] | Kd [4] [µM] | Kd [5] [µM] | Kd [6] [µM] | Kd [7] [µM] | Kd [8] [µM] | Kd [9] [µM] | Kd (Angiopoietin-1 receptor) [µM]
COCC(=O)NC/C=C/c1ccc2ncnc(Nc3ccc(Oc4ccc(C)nc4)c(C)c3)c2c1 [CP-724714] | > 10 | > 10 | > 10 | > 10 | > 10 | > 10 | > 10 | > 10 | > 10 | > 10
CCOc1cc2ncc(C#N)c(Nc3ccc(F)c(Cl)c3)c2cc1NC(=O)/C=C/CN(C)C [PELITINIB] | > 10 | > 10 |  | > 10 |  | > 10 | 0.0064 | > 10 | > 10 | > 10
NC(=O)c1ccc(-c2nc(-c3ccc4c(c3)OCO4)c(-c3ccccn3)[nH]2)cc1 [SB-431542] | > 10 | > 10 | > 10 | > 10 | > 10 | > 10 | > 10 | > 10 | > 10 | > 10
CCN1CCN(Cc2ccc(NC(=O)Nc3ccc(Oc4cc(NC)ncn4)cc3)cc2C(F)(F)F)CC1 [AST-487] |  |  |  |  |  |  |  | > 10 |  | 
Nc1nc(Nc2ccc(S(N)(=O)=O)cc2)nn1C(=O)c1c(F)cccc1F [JNJ-7706621] |  | > 10 |  | > 10 |  | > 10 |  |  | 3 | 
Oc1ccc(-c2nc(-c3ccncc3)c(-c3ccc(F)cc3)[nH]2)cc1 [SB-202190] | > 10 | > 10 | > 10 | > 10 | > 10 | > 10 |  | > 10 | > 10 | > 10
